Laboratory results from paper PMC4914250, “Cancer therapeutic approach based on conformational stabilization of mutant p53 protein by small peptides” (Oncotarget, 2016).

How the values were obtained:
[1] = test system: mutp53^R175H; test: ELISA of mutp53 conformation (PAb1620/PAb240), H1299-p53^R175H cell extract; type: biochemical, human; conditions: for Conform H1299: score 0-6 compared to positive control, mutp53 conformation; for reactivity of p53^R175H with PAb1620 and PAb240: H1299-p53^R175H cell extract, Figure 2A
From the text: A total of close to 350 peptides, deduced from the phage sequences, were synthesized and subjected to several alternative complementary methods of semi high-throughput functional screening; we refer to these peptides as pCAPs (p53 conformation activating peptides). First, we used cell-free ELISA assays to evaluate the effect of individual peptides on mutp53 conformation and DNA binding in vitro. For conformation analysis (Figure 2A), microtiter plates were coated with PAb240, PAb1620 or PAb421 as control, then the effect of each peptide on reactivity of mutp53 with these antibodies was examined; WTp53 served as a positive control for PAb1620 reactivity.
Cell extracts were added to ELISA plates coated with the indicated antibodies to allow mutp53 to react with the peptides and antibodies. αp53-HRP Ab was used for assessment of p53 levels. Numbers represent ratio of absorbance between the PAb1620 and PAb240 samples. All reads were normalized to the control […] reading of each extract. MCF7 (WTp53) and H1299-mutp53^A135V (tsp53) cells were used as positive controls for the WTp53 conformation (1620/240 ratio equals or exceeds 5:1). […] 96 well plates were coated with anti-p53 antibody, cell extracts containing p53 were reacted with oligonucleotides that contain a p53RE consensus binding site, labeled with biotin, in the presence or absence (NT) of test peptides. Streptavidin-HRP is used to quantify the amount of oligos in the well. TMB assay was performed to determine bound mutp53 levels (450nm). MCF7 and the H1299-mutp53^A135V(TS) cells serve as positive controls for WTp53. C.and D. - Bar graphs illustrating the effect of various selected peptides on mut-p53 dependent expression on cell viability. […] D, ES2 cells expressing endogenous mutp53 (blue bars) and ES2 cells knocked out for p53 by CRISPR construct (light blue bars). Cell lines were treated with selected peptides, Cis-platinum was used as positive control for cell death. 48 hours after treatment, cells were washed with PBS, and the remaining attached cells were stained with Crystal violet and washed 4 times with PBS. Stained cells were dissolved in 10% acetic acid and plates were taken for optical density measurement at […]. TEXT PRINTED IN THE PICTURE: (A) pCAP1: 0.87 | (A) pCAP2: 0.53 | (A) pCAP3: 0.59 | (A) pCAP4: 0.59 | (A) pCAP5: 0.60 | (A) pCAP6: 0.75 | (A) pCAP23: 1.06 | (A) pCAP24: 1.44 | (A) pCAP36: 1.25 | (A) pCAP47: 1.54 | (A) pCAP54: 1.54 | (A) pCAP60: 2.73 | (A) pCAP68: 2.22 | (A) pCAP83: 1.56 | (A) pCAP97: 2.45 DOUBTS OF THE COPYIST ABOUT THIS PICTURE: Panel A: the numbers over the bars are printed very small, rotated and blurred, so 3, 5, 6, 8 and 9 cannot be told apart with certainty. All values are best readings: pCAP1 0.87, pCAP2 0.53, pCAP3 0.59, pCAP4 0.59, pCAP5 0.60, pCAP6 0.75, pCAP23 1.06, pCAP24 1.44, pCAP36 1.25, pCAP47 1.54, pCAP54 1.54, pCAP60 2.73, pCAP68 2.22, pCAP83 1.56, pCAP97 2.45 / Panel A: the picture prints no measure with the numbers over the bars, so they are given as bare numbers / Panel A: numbers are also printed over the controls, which are not substances and are left out of lines. Best readings: NT 0.60, 60° 30'' 0.48, 60° 1' 0.37, 60° 3' 0.13, 60° 10' 0.05, MCF7 3.32, H1299TS 3.25
Extracts were prepared at a concentration of 750ng/μl and then reacted for 2 hours with different peptides. Plates coated with the different antibodies were then washed and blocked, and extracts pre-incubated either with or without peptides were added for two additional hours. After removal of extracts, plates were washed and incubated with HRP-conjugated anti-p53 antibody. Finally, HRP activity was quantified by optical density at 450nm. MCF7 cells (expressing WTp53) and H1299-tsp53^A135V cells, stably expressing a temperature sensitive p53 mutant that has mutant conformation at 37°C but WT conformation at 32°C [31], were used as positive controls for the WTp53 conformation (1620/240 ratio 5:1). […]

[2] = test system: p53 target genes in MDA231; test: Induction of p53 target genes by qRT-PCR, MDA231; type: cell-based, human; set-up: key: score 0- no effect-white; score 6- as or more effective than positive control- black; conditions: score 0-6 compared to positive control
Protocol: RNA was obtained using Macherey-Nagel NucleoSpin RNA II Kit on cells pellet according to the manufacturer's protocol. Aliquots of 0.4-1 μg were reverse transcribed using Bio-RT 2000 (Bio-Lab) and random hexamer primers. QRT-PCR was performed on an ABI 7300 instrument (Applied Biosystems) using SYBR Green FastMix ROX (Quanta). RT-PCR primers (All primers sequences are presented 5′ to 3′): […]

[3] = test system: H23; test: Crystal violet viability assay, H23; type: cell-based, human; set-up: key: score 0- no effect-white; score 6- as or more effective than positive control- black; conditions: score 0-6 compared to positive control, 48 h
From the text: (§1) We also performed a similar analysis on ES2 ovarian cancer cells, which express endogenous mp53^S241F, compared to ES2 cells in which p53 was stably knocked out using CRISPR/Cas9 (ES2 p53KO Figure S1F), to control for specificity for mutp53 (Figure 2D). In ES2 cells, too, some of the peptides caused a significant reduction in cell numbers, more prominent in the mutp53 expressing cells than in their p53KO counterparts. […] Overall, we performed this analysis on several different mutp53-expressing human cancer cell lines, and the results are summarized in Table S3. Based on this comprehensive picture, we reduced the number of most promising candidate lead peptides to 30. These peptides were then synthesized with an 8 arginine C-terminal tail for enhanced delivery across cell membranes (pCAPs 130-160); for clarity, peptides are referred to by their original number, with an R for poly arginine (see Table S3).
(§2) Cells were cultured in 96 wells plates with 2500-4000 cells/well. Serial dilutions of different peptides were added and the plates incubated for additional 48 h at 37°C. Then medium was removed and cell viability was determined by staining the cells with crystal violet (0.05%) in methanol/PBS (1:5, v/v), for 10 min, followed by 3 washes with PBS. 10% acetic acid was added to each well for 10 min. OD was determined at 595 nm.

[4] = test system: MDA; test: Crystal violet viability assay, MDA; type: cell-based, human; conditions: score 0-6 compared to positive control, 48 h
From the text: as §1, §2

| Substance | Conform H1299 [1] | PCR MDA231 [2] | Viability H23 [3] | Viability MDA [4] | reactivity of p53^R175H with PAb1620 and PAb240 [1] |
| --- | --- | --- | --- | --- | --- |
| HANLHHT [pCAP-87] | 3 | 4 |  |  |  |
| HHPWTHHQRWS [pCAP-20] | 2 |  | 4 |  |  |
| HSSHHHPVHSWN [pCAP-83] | 4 |  |  |  |  |
| IRGRIIR [pCAP-54] | 3 |  |  | 4 | increased the reactivity of p53^R175H with PAb1620 and decreased its reactivity with PAb240 |
| IRGRIIRRRRRRRRR [pCAP-54R, pCAP-54 with poly arginine tail] | 1 |  |  | 4 |  |
| IRILMFLIGCGR [pCAP-23] | 2 |  |  |  |  |
| IRILMFLIGCGRRRRRRRRR [pCAP-23R, pCAP-23 with poly arginine tail] | 2 |  |  |  |  |
| LHSKTLVL [pCAP-17] | 2 |  |  |  |  |
| LRCLLLLIGRVG [pCAP-24] | 3 |  |  |  |  |
| LRCLLLLIGRVGRRRRRRRR [pCAP-24R, pCAP-24 with poly arginine tail] | 3 |  |  | 4 |  |
| SFILFIRRGRLG [pCAP-60] |  | 2 |  |  | increased the reactivity of p53^R175H with PAb1620 and decreased its reactivity with PAb240 |
| SFILFIRRGRLGRRRRRRRRR [pCAP-60R, pCAP-60 with poly arginine tail] |  |  | 4 |  |  |
| WNHHHSTPHPAH [pCAP-97] | 1 | 3 |  | 4 | increased the reactivity of p53^R175H with PAb1620 and decreased its reactivity with PAb240 |
| WNHHHSTPHPAHRRRRRR [pCAP-97R, pCAP-97 with poly arginine tail] | 1 | 3 |  | 4 |  |
| YPTQGHLR [pCAP-36] | 5 |  |  | 4 |  |
| YRRLLIGMMWRRRRRRRRR [pCAP-68] | 4 | 2 |  | 4 | increased the reactivity of p53^R175H with PAb1620 and decreased its reactivity with PAb240 |
| myr-PRVLPSPHTIHPSQYP [pCAP-229, myristoylated peptide, similarity to HIPK2] |  | 3 | 3 |  |  |
| myr-RRIRDPRILLLHFD [pCAP-325] |  | 6 | 4 | 4 |  |
| myr-RRKHNKHRPEPDSDER [pCAP-221] |  | 4 | 6 | 5 |  |
| myr-RRKILFIRLMHNKH [pCAP-227, myristoylated peptide, similarity to GAS2] | 2 | 3 | 3 | 3 |  |
| myr-RRLIVRILKLPNPPER [pCAP-242] | 2 | 2 | 6 | 3 |  |
